Common to all, as to assay: Comparison with BROMINIL as post-emergent herbicide
Holding throughout (type): in vivo

Test [1] relates to Morning Glory. Conditions: Ipomoea, post-emergence; post-emergent spray, 0.2% Tween 20, 300 gallons per acre; read-out: Concentration Required for adequate control. As to the method:
(§1) All plants were grown in a greenhouse and sprayed with the test solution when they attained 1 to 2 inches in height. The test solutions were made up in water, using a 0.2% Tween 20 surfactant (polyoxyethylene derivative of a fatty acid partial ester of sorbitol) and were applied in a total spray volume equivalent to 300 gallons per acre.

For test [2], the system named is Buckwheat. Conditions: post-emergence; post-emergent spray, 0.2% Tween 20, 300 gallons per acre; read-out: Concentration Required for adequate control. As to the method: as §1
Test [3] relates to Wheat. As to conditions: Triticum aestivum, post-emergence; post-emergent spray, 0.2% Tween 20, 300 gallons per acre; read-out: Concentration: minimum required for injury of wheat. As for the experimental part:
as §1

The subject of test [4] is Wild Mustard. Conditions: Brassica, post-emergence; post-emergent spray, 0.2% Tween 20, 300 gallons per acre; read-out: Concentration Required for adequate control. As to the method:
as §1

Test [5] deals with Bindweed. As to conditions: post-emergence; post-emergent spray, 0.2% Tween 20, 300 gallons per acre; read-out: Concentration Required for adequate control. As to the method:
as §1

Test [6] concerns Wild Oats. As to conditions: Avena fatua, post-emergence; post-emergent spray, 0.2% Tween 20, 300 gallons per acre; read-out: Concentration Required for adequate control. As for the experimental part: as §1

Consider `N#Cc1cc(Br)c(O)c(Br)c1` [BROMINIL, 3,5-dibromo-4-hydroxy benzonitrile], for which the minimal effective concentration is 16 µg/mL in test [1]; 16 µg/mL in test [2]; 4000 µg/mL in test [3]; 16 µg/mL in test [4]; 500 µg/mL in test [5]; greater than 4000 µg/mL in test [6].

The record behind these values is patent US3956338A, “4,6-Dibromo-5-hydroxy-2-pyridine nitrile compounds and method of preparation” (The Dow Chemical Company, priority 1975, dated 1976).
